Test results: PMC5760651, “Peptidomimetic blockade of MYB in acute myeloid leukemia” (Nature Communications, 2018)
Non-standard residues stand in square brackets, D forms with d. Residues, ends and D or L forms follow the SMILES beside them.

Assays:
MYB:CBP/P300 complex = assay: Co-immunoprecipitation of MYB:CBP/P300 complex from MV-411 cells; format: binding, human; conditions: 20 μM, immunoprecipitation with anti-MYB, 3 h, 4 °C, western blot
Description: Cells were lysed in RIPA buffer (Thermo Fisher) supplemented with a protease inhibitor mix comprised of AEBSF (0.5 mM concentration, Santa Cruz, SC-202041B), Bestatin (0.01 mM, Fisher/Alfa Aesar, J61106-MD), Leupeptin (0.1 mM, Santa Cruz, SC-295358B), and Pepstatin (0.001 mM, Santa Cruz, SC-45036A). Lysates were mechanically disrupted using Covaris S220 adaptive focused sonicator, according to the manufacturer’s instructions (Covaris, Woburn, CA). Lysates were cleared by centrifugation for 15 min at 18,000 × g and clarified lysates were quantified using the bicinchoninic acid assay (Pierce). Clarified lysates (20 μg of protein) were resolved using sodium dodecyl sulfate-polyacrylamide gel electrophoresis, and electroeluted using the Immobilon FL PVDF membranes (Millipore, Billerica, MA, USA). Membranes were blocked using the Odyssey Blocking buffer (Li-Cor, Lincoln, Nebraska, USA). The following primary antibodies were used as indicated: anti-MYB (1:1000, 05-175, Millipore), anti-CBP (1:1000, PA1-847, Invitrogen), anti-BCL2 (1:1000, 200-401-222, Rockland), anti-β actin (1:1000, 8H10D10, Cell Signaling). […] Blotted membranes were visualized using secondary antibodies conjugated to IRDye 800CW or IRDye 680RD (Goat anti-rabbit, 1:15,000, and goat anti-mouse, 1:15,000) and the Odyssey CLx fluorescence scanner, according to manufacturer’s instructions (Li-Cor, Lincoln, Nebraska, USA). […]

MOLM-13 cells = assay: RNA-seq transcriptome profiling; format: cell-based, human; conditions: MOLM13 cells, 20 µM, 6 h
Description: Reads were quality and adapter trimmed using “trim_galore” before aligning to human assembly hg19 with STAR v2.5 using the default parameters. Coverage and post-alignment quality were assessed using the Picard tool CollectRNASeqMetrics (http://broadinstitute.github.io/picard/). Read count tables were created using HTSeq v0.6.1. Normalization and expression dynamics were evaluated with DESeq2 using the default parameters.

MV-411 cells = assay: Flow cytometric analysis of apoptosis; format: cell-based, human; conditions: 20 μM, 24 h, flow cytometry, p = 5.4e-3
Description: Cells were resuspended to a concentration of 1 × 10^6 cells were plated in triplicate in a 12-well tissue culture plate. For assessment of annexin V staining, cells were washed with PBS and then resuspended in PBS with Annexin V-APC (BioLegend) and propidium iodide at a dilution of 1:1000. For intracellular detection of cleaved caspase 3, cells were fixed and permeabilized using the BD Cytofix/Cytoperm Fixation/Permeabilization solution according to the manufacturer’s instructions (BD Biosciences). Cells were then stained using the Alexa Fluor 647-conjugated anti-active caspase-3 (BD Biosciences) at a dilution of 1:50. Cells were incubated for 30 minutes room temperature in the dark, washed, and then analyzed using the BD LSRFortessa cell analyzer. For assessment of differentiation, cells were stained using the anti-human CD14 PE at a dilution of 1:20 (Affymetrix eBiosciences) and anti-human CD66b at a dilution of 1:20 (Affymetrix eBiosciences).

MV-411 and MOLM-13 cells = assay: qRT-PCR of BCL2 mRNA expression; format: cell-based, human; conditions: 20 μM, 6 h
Description: RNA was isolated using Trizol reagent according to the manufacturer’s instructions (Life Technologies). Complementary DNA was synthesized using the SuperScript III First-Strand Synthesis system according to the manufacturer’s instructions (Invitrogen). Quantitative real-time PCR was performed using the KAPA SYBR FAST PCR polymerase with 20 ng template and 200 nM primers, according to the manufacturer’s instructions (Kapa Biosystems, Wilmington, MA, USA). PCR primers are listed in Supplementary Table 4. Ct values were calculated using ROX normalization using the ViiA 7 software (Applied Biosystems).

C57BL/6J mice = assay: Peripheral blood counts after 7 days of treatment; format: in vivo, mouse; conditions: 25 mg/kg IP daily
Description: All mouse experiments were carried out in accordance with the Memorial Sloan Kettering Institutional Animal Care and Use Committee. For toxicity studies, female C57BL/6J mice (The Jackson Laboratory, Bar Harbor, Maine, USA) were treated with MYBMIM peptide suspended in PBS and administered daily through intraperitoneal injection at a dose of 25 mg/kg for a total of 7 days. Mice were sacrificed at the end of treatment for hematologic, biochemical and histologic analyses. For pharmacokinetic studies, C57BL/6J mice (The Jackson Laboratory, Bar Harbor, Maine, USA) were treated with a single IP injection of 25 mg/kg BIO-MYBMIM, and blood plasma was collected 30 min, 2 h, 4 h, and 24 h post-injection. Quantification of BIO-MYBMIM was measured using the Quant-Tag Biotin kit (Vector Labs, cat. # BDK-2000) following the manufacturer instructions. For patient-derived xenografts, two hundred thousand primary AML MLL-rearranged leukemia cells were suspended in […] of PBS and transplanted via tail vein injection into 8-week-old sublethally irradiated (200 rad) female NOD.Cg-Prkdc(scid)Il2rg(tm1Wjl)/SzJ mice (The Jackson Laboratory, Bar Harbor, Maine, USA). […] Mice were treated from days 3–17 of this study for a total of 14 days and then monitored daily with clinical examination for survival analysis.

In the case of `CC[C@@H](C)[C@@H](NC(=O)[C@@H](CCCCN)NC(=O)[C@@H](CCC(=O)O)NC(=O)[C@@H](CC(C)C)NC(=O)[C@@H](CCC(=O)O)NC(=O)[C@@H](CC(C)C)NC(=O)[C@@H](CC(C)C)NC(=O)[C@@H](CC(C)C)NC(=O)[C@@H](CCSC)NC(=O)[C@@H](CO)NC(=O)[C@H](NC(=O)[C@@H](CCC(=O)O)NC(=O)[C@@H](CC(N)=O)NC(=O)[C@@H](CCC(=O)O)NC(=O)[C@@H](CC(C)C)NC(=O)[C@@H](CCCCN)NC(C)=O)[C@H](C)O)C(=O)N[C@H](CCCNC(=N)N)C(=O)N[C@H](CCCCN)C(=O)NCC(=O)NCC(=O)N[C@H](CCCNC(=N)N)C(=O)N[C@H](CCCNC(=N)N)C(=O)N[C@H](CCCNC(=N)N)C(=O)N[C@H](CCC(N)=O)C(=O)N[C@H](CCCNC(=N)N)C(=O)N[C@H](CCCNC(=N)N)C(=O)N[C@H](CCCCN)C(=O)N[C@H](CCCCN)C(=O)N[C@H](CCCNC(=N)N)C(=O)NCC(=O)N[C@H](Cc1ccc(O)cc1)C(N)=O` [MYBMIM] (Ac-[dK][dL][dE][dN][dE][dT][dS][dM][dL][dL][dL][dE][dL][dE][dK][dI][dR][dK]GG[dR][dR][dR][dQ][dR][dR][dK][dK][dR]G[dY]-NH2), the “Dissociation of the cellular MYB:CBP/P300 complex” value (MYB:CBP/P300 complex) is reported as “significant dissociation”, the “BCL2, MYC, GFI1, MTL5, IKZF1 gene expression” value (MOLM-13 cells) is reported as “significant downregulation” and the “Apoptosis by cell surface annexin V and intracellular caspase 3 cleavage” value (MV-411 cells) is reported as “significant apoptosis”. For the same compound, the BCL2 expression downregulation (MV-411 and MOLM-13 cells) was “more than two-fold” and the “Peripheral blood counts (total leukocytes, lymphocytes, platelets, blood hemoglobin)” value (C57BL/6J mice) was “no significant changes”.
